Assay results as given in ChEMBL document CHEMBL4321798, “Old but Gold: Tracking the New Guise of Histone Deacetylase 6 (HDAC6) Enzyme as a Biomarker and Therapeutic Target in Rare Diseases” (J Med Chem, 2020).

Legend:
[1] = Inhibition of maize HD2; set-up: species or system Zea mays
[2] = target: T1, Protein deacetylase HDAC6 (Homo sapiens, UniProt Q9UBN7); assay: Inhibition of HADC6 (unknown origin)
T1 sequence (Q9UBN7 whole entry): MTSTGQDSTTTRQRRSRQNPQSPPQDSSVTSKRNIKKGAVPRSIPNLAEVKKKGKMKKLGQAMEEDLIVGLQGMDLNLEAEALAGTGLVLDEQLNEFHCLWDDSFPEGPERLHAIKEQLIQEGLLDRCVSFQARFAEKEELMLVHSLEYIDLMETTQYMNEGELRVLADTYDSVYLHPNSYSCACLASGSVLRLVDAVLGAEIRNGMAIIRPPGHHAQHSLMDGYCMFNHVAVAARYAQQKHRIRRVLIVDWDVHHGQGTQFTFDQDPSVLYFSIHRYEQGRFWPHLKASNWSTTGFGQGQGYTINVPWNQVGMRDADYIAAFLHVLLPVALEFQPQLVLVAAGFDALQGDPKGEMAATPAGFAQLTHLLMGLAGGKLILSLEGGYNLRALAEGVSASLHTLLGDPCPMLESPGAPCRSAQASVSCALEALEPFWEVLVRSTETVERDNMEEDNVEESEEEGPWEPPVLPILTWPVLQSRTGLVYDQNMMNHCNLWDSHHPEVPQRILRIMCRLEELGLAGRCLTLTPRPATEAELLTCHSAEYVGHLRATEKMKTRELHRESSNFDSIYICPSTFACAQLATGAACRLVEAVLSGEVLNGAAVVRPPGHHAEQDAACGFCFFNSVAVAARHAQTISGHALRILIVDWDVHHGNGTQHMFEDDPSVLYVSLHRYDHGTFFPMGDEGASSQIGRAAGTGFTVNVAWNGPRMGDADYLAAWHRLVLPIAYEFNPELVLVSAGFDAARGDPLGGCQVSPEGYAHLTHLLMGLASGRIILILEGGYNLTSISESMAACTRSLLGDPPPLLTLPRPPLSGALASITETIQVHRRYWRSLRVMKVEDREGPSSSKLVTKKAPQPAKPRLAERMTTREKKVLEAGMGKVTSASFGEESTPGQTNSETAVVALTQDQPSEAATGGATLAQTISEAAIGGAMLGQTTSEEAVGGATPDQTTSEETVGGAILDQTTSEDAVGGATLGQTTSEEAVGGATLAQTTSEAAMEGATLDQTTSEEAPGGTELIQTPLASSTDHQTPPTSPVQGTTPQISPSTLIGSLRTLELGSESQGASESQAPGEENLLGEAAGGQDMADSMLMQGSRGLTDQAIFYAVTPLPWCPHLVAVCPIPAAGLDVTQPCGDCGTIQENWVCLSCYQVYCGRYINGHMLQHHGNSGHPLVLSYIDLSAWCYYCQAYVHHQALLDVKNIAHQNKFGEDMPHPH

Histone deacetylase 1 = Histone deacetylase 1 (Homo sapiens, UniProt Q13547); assay: Inhibition of HADC1 (unknown origin)
[3] = Inhibition of maize HD1-A; set-up: species or system Zea mays

Histone deacetylase 1, sequence (Q13547 whole entry): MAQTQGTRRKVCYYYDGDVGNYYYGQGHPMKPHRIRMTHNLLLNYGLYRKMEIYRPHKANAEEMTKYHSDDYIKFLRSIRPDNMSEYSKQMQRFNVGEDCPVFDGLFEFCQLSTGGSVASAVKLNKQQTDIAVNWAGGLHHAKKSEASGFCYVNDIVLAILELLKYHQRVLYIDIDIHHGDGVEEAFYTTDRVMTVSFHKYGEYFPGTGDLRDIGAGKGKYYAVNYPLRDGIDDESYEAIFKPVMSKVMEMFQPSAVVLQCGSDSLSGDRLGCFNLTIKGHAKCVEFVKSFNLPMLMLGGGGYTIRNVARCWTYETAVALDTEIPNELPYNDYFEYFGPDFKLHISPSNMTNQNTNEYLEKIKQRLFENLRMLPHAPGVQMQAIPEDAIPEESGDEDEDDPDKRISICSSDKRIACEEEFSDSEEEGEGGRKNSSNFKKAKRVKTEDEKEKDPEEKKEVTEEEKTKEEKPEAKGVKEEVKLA

Compound | IC50 [1] [nM] | IC50 [2] [nM] | IC50 (Histone deacetylase 1) [µM] | IC50 [3] [nM]
CN(C)c1ccc(C(=O)NCCCCCCC(=O)NO)cc1 | 100 |  |  | 
Cc1nc2ccccc2n1Cc1ccc(C(=O)NO)cc1F |  | 3 | 4.32 | 
Cn1cc(/C=C/C(=O)c2cccc(F)c2)cc1/C=C/C(=O)NO |  |  |  | 100
CC(C)[C@H]1NC(=O)[C@H]2CSSCC/C=C/[C@H](CC(=O)N[C@H](C)C(=O)N2)OC(=O)C[C@@H]1O [OBP-801] |  | 1600 | 0.0033 | 
CCCC(CCC)C(=O)O [VALPROIC ACID] |  |  | 40 | 
